Read-outs that look alike come from different tables or passages of the source.
Key:
Experiment in all cases: Radiometric protein kinase assay (33PanQinase Activity Assay)
Assay type in all cases: biochemical
CDK2/CycA = target: T1, CDK2/CycA (Homo sapiens, UniProt P24941)
T1 construct: made in house; host or cells: Sf9 insect cells, baculovirus
From the text: (§1) AKTI1, ARK5, Aurora-A, Aurora-B, B-RAF-VE, CDK2/CycA, CDK4/CycD1, CK2-alpha1 (catalytic subunit of CK2), EGF-R, EPHB4, ERBB2, FAK, IGF1-R, SRC, VEGF-R2, VEGF-R3, FLT3, INS-R, MET, PDGFR-beta, PLK1, SAK, TIE2, COT.
(§2) All the protein kinases were expressed in Sf9 insect cells as human recombinant GST fusion proteins or His-tagged proteins by the baculovirus expression system. Kinases were purified by affinity chromatography either by GSH-agarose (Sigma) or Ni—NTH-agarose (Qiagen). The purity of the kinases was tested by SDS-PAGE/silver staining, and the identity of the kinases was verified by Western blot analysis with specific antibodies or mass spectroscopy.
(§3) A radiometric protein kinase assay (33PanQinase® Activity Assay) was used to measure the kinase activity for the 24 protein kinases. The kinase assays were carried out in 96-well FlashPlates™ from Perkin Elmer/NEN (Boston, Mass., USA) in a reaction volume of 50 μl. The reaction mixture was pipetted in 4 steps in the following sequence: • 20 μl of assay buffer • 5 μl of ATP solution (in H2O) • 5 μl of test compound (in 10% DMSO) • 10 μl of substrate/10 μl of enzyme solution (premixed)
(§4) The assays for all the enzymes contained 60 mM HEPES-NaOH, pH 7.5, 3 mM MgCl2, 3 mM MnCl2, 3 μM Na orthovanadate, 1.2 mM DTT, 50 μg/ml PEG20000, 1 μM [γ-^33P]-ATP (about 5×10^5 cpm per well).
(§5) The reaction mixture was incubated at 30° C. for 80 minutes. The reaction was stopped with 50 μl of 2% (v/v) H3PO4. The plates were aspirated and washed twice with 200 μl of 0.9% (w/v) NaCl. The incorporation of ^33Pi was determined using a microtiter plates scintillation counter (Microbeta Trilux, Wallac).

ARK5 = target: T2, ARK5 (Homo sapiens, UniProt O60285)
T2 construct: made in house; host or cells: Sf9 insect cells, baculovirus
T2 sequence (O60285 1-661): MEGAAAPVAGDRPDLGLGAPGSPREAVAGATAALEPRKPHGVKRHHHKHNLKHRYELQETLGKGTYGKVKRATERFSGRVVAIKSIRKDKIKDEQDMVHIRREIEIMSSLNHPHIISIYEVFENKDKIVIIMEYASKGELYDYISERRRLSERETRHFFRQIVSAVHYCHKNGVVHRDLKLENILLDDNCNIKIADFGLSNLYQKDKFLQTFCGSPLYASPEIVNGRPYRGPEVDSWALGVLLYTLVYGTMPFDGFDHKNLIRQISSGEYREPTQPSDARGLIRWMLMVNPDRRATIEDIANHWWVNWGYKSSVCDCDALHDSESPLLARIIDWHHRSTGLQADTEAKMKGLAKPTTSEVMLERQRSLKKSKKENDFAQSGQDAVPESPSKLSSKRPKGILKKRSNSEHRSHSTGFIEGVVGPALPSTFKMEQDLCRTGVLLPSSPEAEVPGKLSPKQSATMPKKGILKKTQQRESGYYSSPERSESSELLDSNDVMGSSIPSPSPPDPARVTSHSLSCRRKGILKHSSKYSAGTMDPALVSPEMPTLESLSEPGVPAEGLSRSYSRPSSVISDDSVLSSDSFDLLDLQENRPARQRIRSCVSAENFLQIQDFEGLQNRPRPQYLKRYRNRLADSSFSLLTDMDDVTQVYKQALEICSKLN
From the text: as §1, §2, §3, §4, §5

VEGF-R3 = target: T3, VEGF-R3 (Homo sapiens, UniProt P35916)
T3 construct: made in house; host or cells: Sf9 insect cells, baculovirus
T3 sequence (P35916 25-1363): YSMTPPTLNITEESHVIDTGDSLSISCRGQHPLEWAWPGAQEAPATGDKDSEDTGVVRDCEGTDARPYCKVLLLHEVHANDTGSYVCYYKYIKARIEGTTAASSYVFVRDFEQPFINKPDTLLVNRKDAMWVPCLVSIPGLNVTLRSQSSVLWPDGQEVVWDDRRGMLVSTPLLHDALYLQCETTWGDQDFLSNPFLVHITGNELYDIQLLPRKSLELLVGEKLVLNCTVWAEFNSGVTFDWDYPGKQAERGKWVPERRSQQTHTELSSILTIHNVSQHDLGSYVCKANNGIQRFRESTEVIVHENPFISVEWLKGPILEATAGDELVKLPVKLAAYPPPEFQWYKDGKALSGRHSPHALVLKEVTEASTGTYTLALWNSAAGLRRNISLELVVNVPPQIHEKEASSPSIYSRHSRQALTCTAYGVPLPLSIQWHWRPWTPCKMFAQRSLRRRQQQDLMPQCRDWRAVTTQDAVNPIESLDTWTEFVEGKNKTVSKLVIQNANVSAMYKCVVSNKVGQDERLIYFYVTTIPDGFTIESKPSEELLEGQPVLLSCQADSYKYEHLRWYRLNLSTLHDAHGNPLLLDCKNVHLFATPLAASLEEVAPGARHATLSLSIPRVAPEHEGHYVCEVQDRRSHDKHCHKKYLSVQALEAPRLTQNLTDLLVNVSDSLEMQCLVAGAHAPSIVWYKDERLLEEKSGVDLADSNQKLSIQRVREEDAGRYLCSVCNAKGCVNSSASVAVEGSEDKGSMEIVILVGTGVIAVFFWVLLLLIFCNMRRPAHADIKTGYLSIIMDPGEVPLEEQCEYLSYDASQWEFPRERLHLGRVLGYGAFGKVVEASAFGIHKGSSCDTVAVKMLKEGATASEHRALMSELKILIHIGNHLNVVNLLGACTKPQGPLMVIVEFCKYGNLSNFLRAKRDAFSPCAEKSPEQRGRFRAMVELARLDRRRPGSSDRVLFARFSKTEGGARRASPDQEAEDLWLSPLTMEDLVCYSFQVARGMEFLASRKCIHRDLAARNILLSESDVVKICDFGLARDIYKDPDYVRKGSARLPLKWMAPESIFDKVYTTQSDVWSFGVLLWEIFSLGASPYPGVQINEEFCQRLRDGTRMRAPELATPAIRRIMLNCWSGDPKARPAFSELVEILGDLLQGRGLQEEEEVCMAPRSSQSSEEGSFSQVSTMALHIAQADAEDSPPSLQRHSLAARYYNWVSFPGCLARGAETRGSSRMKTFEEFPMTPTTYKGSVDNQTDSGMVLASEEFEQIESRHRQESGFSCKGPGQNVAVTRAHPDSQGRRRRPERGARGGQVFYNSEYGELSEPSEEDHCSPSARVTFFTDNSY
From the text: as §1, §2, §3, §4, §5

IGF1-R = target: T4, IGF1-R (Homo sapiens, UniProt P08069)
T4 construct: made in house; host or cells: Sf9 insect cells, baculovirus
T4 sequence (P08069 31-1367): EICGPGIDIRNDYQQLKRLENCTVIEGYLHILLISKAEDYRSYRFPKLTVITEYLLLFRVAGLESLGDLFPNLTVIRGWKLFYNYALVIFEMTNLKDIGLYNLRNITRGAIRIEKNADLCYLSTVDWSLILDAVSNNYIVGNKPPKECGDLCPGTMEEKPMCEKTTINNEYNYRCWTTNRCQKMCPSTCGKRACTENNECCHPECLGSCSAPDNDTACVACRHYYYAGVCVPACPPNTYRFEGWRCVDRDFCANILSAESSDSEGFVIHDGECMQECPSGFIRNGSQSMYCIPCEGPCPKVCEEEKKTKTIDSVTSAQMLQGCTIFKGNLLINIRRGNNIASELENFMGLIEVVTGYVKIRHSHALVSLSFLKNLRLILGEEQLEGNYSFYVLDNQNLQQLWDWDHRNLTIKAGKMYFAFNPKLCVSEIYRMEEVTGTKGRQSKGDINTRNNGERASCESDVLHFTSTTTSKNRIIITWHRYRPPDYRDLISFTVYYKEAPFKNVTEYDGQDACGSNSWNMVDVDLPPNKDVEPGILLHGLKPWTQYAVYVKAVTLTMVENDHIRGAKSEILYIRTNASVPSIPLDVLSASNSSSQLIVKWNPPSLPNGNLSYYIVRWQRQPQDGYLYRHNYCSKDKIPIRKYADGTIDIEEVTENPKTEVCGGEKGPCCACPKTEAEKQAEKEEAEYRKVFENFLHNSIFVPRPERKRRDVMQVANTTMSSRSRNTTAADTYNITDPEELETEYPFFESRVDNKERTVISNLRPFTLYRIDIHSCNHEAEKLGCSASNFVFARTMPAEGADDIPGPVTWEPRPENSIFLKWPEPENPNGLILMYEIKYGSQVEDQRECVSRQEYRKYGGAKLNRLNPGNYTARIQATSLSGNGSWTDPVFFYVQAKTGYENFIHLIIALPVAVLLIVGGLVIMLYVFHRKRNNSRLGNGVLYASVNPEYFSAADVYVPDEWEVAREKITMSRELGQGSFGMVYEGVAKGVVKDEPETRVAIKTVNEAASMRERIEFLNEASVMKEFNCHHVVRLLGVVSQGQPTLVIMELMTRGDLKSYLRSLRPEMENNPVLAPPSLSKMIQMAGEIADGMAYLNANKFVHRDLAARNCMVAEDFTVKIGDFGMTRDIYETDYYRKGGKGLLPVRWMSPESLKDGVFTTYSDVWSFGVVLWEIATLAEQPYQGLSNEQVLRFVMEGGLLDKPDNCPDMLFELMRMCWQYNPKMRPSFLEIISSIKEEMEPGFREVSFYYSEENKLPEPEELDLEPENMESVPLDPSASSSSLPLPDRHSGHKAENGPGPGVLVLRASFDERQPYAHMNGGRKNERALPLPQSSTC
From the text: as §1, §2, §3, §4, §5

FLT3 = target: T5, FLT3 (Homo sapiens, UniProt P36888)
T5 construct: made in house; host or cells: Sf9 insect cells, baculovirus
T5 sequence (P36888 27-993): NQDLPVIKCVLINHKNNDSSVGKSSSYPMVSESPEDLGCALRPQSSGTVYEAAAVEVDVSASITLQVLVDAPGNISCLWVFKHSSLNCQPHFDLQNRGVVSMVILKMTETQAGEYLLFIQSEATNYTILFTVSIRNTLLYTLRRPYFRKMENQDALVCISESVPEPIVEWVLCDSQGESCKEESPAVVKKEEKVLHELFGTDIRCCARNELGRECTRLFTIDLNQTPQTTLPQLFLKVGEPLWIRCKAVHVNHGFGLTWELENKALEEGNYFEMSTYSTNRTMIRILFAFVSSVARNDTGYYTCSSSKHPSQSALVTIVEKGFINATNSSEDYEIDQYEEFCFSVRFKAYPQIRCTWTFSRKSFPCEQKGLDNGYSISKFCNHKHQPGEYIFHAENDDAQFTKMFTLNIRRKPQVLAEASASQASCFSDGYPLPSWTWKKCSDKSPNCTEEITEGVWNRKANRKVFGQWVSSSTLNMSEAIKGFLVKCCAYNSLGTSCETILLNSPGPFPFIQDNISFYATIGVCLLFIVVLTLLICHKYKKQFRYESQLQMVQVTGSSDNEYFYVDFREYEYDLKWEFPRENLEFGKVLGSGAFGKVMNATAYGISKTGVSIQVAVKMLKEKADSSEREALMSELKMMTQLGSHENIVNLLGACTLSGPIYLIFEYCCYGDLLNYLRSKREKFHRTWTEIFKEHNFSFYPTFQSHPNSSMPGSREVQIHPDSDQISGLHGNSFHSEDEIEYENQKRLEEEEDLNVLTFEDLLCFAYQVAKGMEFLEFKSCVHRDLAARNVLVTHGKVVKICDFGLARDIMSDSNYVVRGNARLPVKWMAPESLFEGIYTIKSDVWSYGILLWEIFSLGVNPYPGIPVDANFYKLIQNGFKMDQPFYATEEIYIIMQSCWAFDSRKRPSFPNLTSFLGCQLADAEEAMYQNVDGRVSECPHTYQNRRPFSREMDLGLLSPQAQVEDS
From the text: as §1, §2, §3, §4, §5

Aurora-B = target: T6, Aurora-B (Homo sapiens, UniProt Q96GD4)
T6 construct: made in house; host or cells: Sf9 insect cells, baculovirus
T6 sequence (Q96GD4 whole entry): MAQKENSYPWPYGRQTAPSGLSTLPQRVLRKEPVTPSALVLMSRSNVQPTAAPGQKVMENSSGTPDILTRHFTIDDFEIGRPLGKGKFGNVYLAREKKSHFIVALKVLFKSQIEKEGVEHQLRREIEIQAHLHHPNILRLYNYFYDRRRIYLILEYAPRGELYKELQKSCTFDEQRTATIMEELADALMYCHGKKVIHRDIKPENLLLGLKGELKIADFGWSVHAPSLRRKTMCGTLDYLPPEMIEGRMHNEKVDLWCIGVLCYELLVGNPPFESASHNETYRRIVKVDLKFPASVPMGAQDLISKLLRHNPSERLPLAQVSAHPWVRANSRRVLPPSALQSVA
From the text: as §1, §2, §3, §4, §5

TIE2 = target: T7, TIE2 (Homo sapiens, UniProt Q02763)
T7 construct: made in house; host or cells: Sf9 insect cells, baculovirus
T7 sequence (Q02763 23-1124): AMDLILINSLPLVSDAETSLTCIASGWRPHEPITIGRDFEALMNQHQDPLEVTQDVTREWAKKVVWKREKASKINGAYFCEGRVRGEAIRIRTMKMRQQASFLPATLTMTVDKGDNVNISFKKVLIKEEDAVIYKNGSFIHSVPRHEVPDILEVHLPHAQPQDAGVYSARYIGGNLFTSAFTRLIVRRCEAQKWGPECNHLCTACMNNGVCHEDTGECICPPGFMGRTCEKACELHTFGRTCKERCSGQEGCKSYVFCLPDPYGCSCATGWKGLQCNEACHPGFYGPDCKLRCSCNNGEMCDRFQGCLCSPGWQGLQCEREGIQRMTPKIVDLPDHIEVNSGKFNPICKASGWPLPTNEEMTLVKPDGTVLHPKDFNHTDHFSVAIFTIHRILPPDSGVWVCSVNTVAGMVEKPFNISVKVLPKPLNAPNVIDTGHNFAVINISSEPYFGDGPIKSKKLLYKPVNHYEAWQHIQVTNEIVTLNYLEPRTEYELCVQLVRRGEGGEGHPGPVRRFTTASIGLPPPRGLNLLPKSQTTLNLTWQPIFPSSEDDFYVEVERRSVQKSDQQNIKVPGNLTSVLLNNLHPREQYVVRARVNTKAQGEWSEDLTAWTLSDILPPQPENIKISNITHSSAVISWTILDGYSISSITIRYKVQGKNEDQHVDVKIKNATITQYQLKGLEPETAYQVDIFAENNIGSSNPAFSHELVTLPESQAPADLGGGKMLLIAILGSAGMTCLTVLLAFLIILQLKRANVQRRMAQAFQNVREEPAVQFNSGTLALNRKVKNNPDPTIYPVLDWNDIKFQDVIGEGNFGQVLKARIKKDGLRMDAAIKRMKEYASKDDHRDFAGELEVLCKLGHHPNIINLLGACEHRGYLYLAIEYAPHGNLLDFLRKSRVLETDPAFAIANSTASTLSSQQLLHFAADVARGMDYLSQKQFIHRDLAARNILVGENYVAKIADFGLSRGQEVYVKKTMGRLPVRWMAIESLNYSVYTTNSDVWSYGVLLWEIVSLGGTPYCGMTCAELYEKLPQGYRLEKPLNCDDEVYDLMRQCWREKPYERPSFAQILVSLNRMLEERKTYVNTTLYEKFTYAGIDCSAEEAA
From the text: as §1, §2, §3, §4, §5

[1] = 1 μM ATP, read-out: IC50 values [μM] CDK2/CycA
[2] = 1 μM ATP, read-out: IC50 values [μM] ARK5
[3] = 1 μM ATP, read-out: IC50 values [μM] VEGF-R3
[4] = 1 μM ATP, read-out: IC50 values [μM] IGF1-R
[5] = 1 μM ATP, read-out: IC50 values [μM] FLT3
[6] = 1 μM ATP, read-out: IC50 values [μM] Aurora-B
[7] = 1 μM ATP, read-out: IC50 values [μM] TIE2

| Structure (SMILES) | IC50 (CDK2/CycA; [1]) | IC50 (ARK5; [2]) | IC50 (VEGF-R3; [3]) | IC50 (IGF1-R; [4]) | IC50 (FLT3; [5]) | IC50 (Aurora-B; [6]) | IC50 (TIE2; [7]) | IC50 (CDK2/CycA) | IC50 (ARK5) | IC50 (VEGF-R3) | IC50 (IGF1-R) | IC50 (FLT3) | IC50 (Aurora-B) | IC50 (TIE2) |
| --- | --- | --- | --- | --- | --- | --- | --- | --- | --- | --- | --- | --- | --- | --- |
| O=c1ccc(=O)c2c1c1c(=O)c3ccccc3c1n2Cc1ccccc1 [Compound 6c, 5-Benzyl 5,6,9,10-tetrahydroindeno[1,2-b]indole-6,9,10-trione] | > 10 µM | 1.3 µM | 7.5 µM | 2.5 µM | 9.2 µM | > 10 µM | 4.7 µM | – | – | – | – | – | – | – |
| CC(C)n1c2c(=O)ccc(=O)c2c2c(=O)c3ccccc3c21 [Compound 6b, 5-Isopropyl-5H-indeno[1,2-b]indole-6,9,10-trione] | > 10 µM | 0.17 µM | 0.96 µM | 2.9 µM | 0.051 µM | 5.4 µM | 3.2 µM | – | – | – | – | – | – | – |
| CC(C)n1c2c(c3c1-c1ccccc1C3=O)C(=O)CCC2 [Compound 4b, 5-Isopropyl-5,6,7,8-tetrahydroindeno[1,2-b]indole-9,10-dione] | – | – | – | – | – | – | – | > 10 µM | > 10 µM | > 10 µM | > 10 µM | > 10 µM | > 10 µM | > 10 µM |

Reference: patent US8133913B2, “Substituted indeno [1,2-b]indole derivatives as novel inhibitors of protein kinase CK2 and their use as tumor therapeutic agents, cytostatics and diagnostic aids” (Heinrich-Heine Universitat Dusseldof, priority 2006, dated 2012)
